Patent publication US9485983B2, “Use of connexin channel inhibitors to protect grafts” (Universiteit Gent, priority 2012, dated 2016)
Entries after “also recorded” stand apart in the source; their conditions may differ.

How the values were obtained:
Format in all cases: cell-based
[1] = test system: C6 glioma cells stably transfected with Cx43; assay: TUNEL control experiment with staurosporine; details: 2 μM, 6 hours
[2] = test system: ECs and SMCs of saphenous veins; assay: TUNEL apoptosis assay on cryopreserved/thawed human saphenous veins; details: for effect on number of TUNEL-positive cells (in words) / reduction of TUNEL-positive cell death counts (fraction): saphenous veins; for Protection relative to total number of cells (%) / Protection relative to total number of dead cells (%): Veins, Gap27 200 μM; for reduction of TUNEL-positive cell death counts (fraction): 200 μM during cryopreservation, thawing and DMSO washout
Excerpt: (§1) Tissue samples of human femoral artery and saphenous vein were obtained from deceased donors (age: 45±1.7 years) according to a protocol that was approved by the ethical committee of the University Hospital Ghent, Belgium. […] Exclusion criteria were: presence of ulcers, calcific atheromas, rupture of intima or media, traction lesions due to prelevation in arteries; signs of phlebitis, atheromatosis, parietal abnormalities, or lesions of intima in veins. The vessels were placed in HBSS-HEPES and prior to cryopreservation, DMSO (15%) was added. […] Grafts were cryopreserved at 1° C./minute in a −80° C. freezer and, after two weeks, stored for at least another two weeks in a liquid nitrogen container (−196° C.).
(§2) For vessel analysis and cell death studies, tissues were thawed in a 37° C. water bath and kept on ice before the next steps. DMSO was then progressively washed out by a stepwise reduction of the DMSO concentration in the HBSS-HEPES solution. To that purpose, the blood vessels remained for 4 minutes in HBSS-HEPES solution with, respectively, 10%, 5%, 2.5% and 0% DMSO. In Gap27-treated vessels, the peptide (200 μM) was present during DMSO washout.
(§3) After DMSO washout, vessels were embedded in paraffin. To this purpose, blood vessels were transferred to a neutral buffered 4% formalin solution for fixation during 24 hours and were then embedded in paraffin. Paraffin-embedded vessel specimens were cut into […] serial sections along a transverse plane and were then stained with hematoxylin and eosin for general inspection, immunostained for connexins to establish the expression of various connexin types in the blood vessels or stained for cell death (apoptosis) making use of in situ terminal TdT-mediated dUTP nick end-labeling (TUNEL) with the In Situ Cell Death Detection Kit (Roche, Vilvoorde, Belgium). After any of these staining procedures, images were taken on a Nikon TE300 inverted microscope using a ×10 or ×20 objective and equipped with a Nikon DS-Ri1 cooled color CCD camera (Nikon Belux, Brussels, Belgium).
(§4) Embedded artery or vein sections were deparaffinized, rehydrated through graded alcohol, and permeabilized with 0.1% TRITON® X-100 at room temperature (8 minutes incubation). Slides were rinsed twice in a phosphate-buffered saline (PBS). Apoptosis was detected through in situ terminal deoxynucleotidyl transferase (TdT)-mediated deoxyuridine triphosphate (dUTP) nick end-labeling (TUNEL), using the In Situ Cell Death Detection Kit (Roche, Vilvoorde, Belgium). Slides were incubated with the TUNEL reaction mixture containing TdT and fluorescein-dUTP for 1 hour at 37° C.; thereafter, they were rinsed three times in PBS and mounted as described for immunostaining. […] TUNEL-stained blood vessel tissue sections were examined by epifluorescence microscopy as described for immunostaining. Four areas from each slide were examined and five slides per blood vessel were analyzed. The number of TUNEL-positive cells is given as a percentage of the total number of cells quantified from DAPI-positive counts.

[3] = test system: ECs and SMCs of femoral arteries; assay: TUNEL apoptosis assay on cryopreserved/thawed human femoral arteries; details: for effect on number of TUNEL-positive cells (in words) / reduction of TUNEL-positive cell death counts (fraction): femoral arteries; for Protection relative to total number of cells (%) / Protection relative to total number of dead cells (%): Arteries, Gap27 200 μM; for reduction of TUNEL-positive cell death counts (fraction): 200 μM during cryopreservation, thawing and DMSO washout
Excerpt: as §1, §2, §3, §4

[4] = test system: ECs and SMCs of saphenous veins; assay: TUNEL apoptosis assay on cryopreserved/thawed human saphenous veins; details: saphenous vein; Gap27 during cryopreservation/thawing only
[5] = test system: bovine oocytes; assay: Fertilization rate of vitrified/thawed COCs; details: COCs vitrified/thawed in the presence of Gap27
Experimental: All procedures used were in accordance with the guidance principals for care and use of laboratory animals of the Laboratory Animal Ethical Commission of Ghent University. Bovine cumulus-oocyte complexes (COCs) were aspirated from ovaries collected at a local slaughterhouse. Immature COCs were recovered from the follicular fluid, washed two times in HEPES-TALP (see below under the heading “Pharmacological agents and solutions” of Materials and Methods), and matured for 22 hours in groups of 60 in […] of modified bicarbonate-buffered TCM199 (Gibco BRL, Life Technologies) supplemented with 20% heat-inactivated fetal calf serum (FCS; Sigma-Aldrich) at 38.5° C. in a humidified 5% CO2 incubator. Vitrification was performed in two steps: an equilibration (EQ) and a vitrification step (VS). Equilibration solution was composed of M199/Hanks/HEPES supplemented with 20% fetal calf serum (FCS)+7.5% ethylene glycol+7.5% DMSO. The vitrification solution contained: M199/Hanks/HEPES supplemented with 20% FCS+15% ethylene glycol, 15% DMSO and 0.5 M sucrose. The COCs were washed by transferring them sequentially in three drops of 100 μl EQ solution (3 minutes residence in the first two drops and 6 minutes in the last drop) and then placed stepwise in five 100 μl drops VS solution (5 seconds in each drop except for the fifth that lasted 10 seconds). […]

[6] = test system: ECs and SMCs of femoral arteries; assay: TUNEL apoptosis assay on cryopreserved/thawed human femoral arteries; details: femoral artery; Gap27 during cryopreservation/thawing only
[7] = test system: cumulus cells of bovine COCs; assay: TUNEL cell death of COCs after simulated transportation
Experimental: COCs were fixed in neutral buffered 4% formalin solution after thawing. Fixed COCs were permeabilized with 0.1% TRITON® X-100 at room temperature (8-minute incubation). COCs were rinsed twice in a phosphate-buffered saline (PBS, see Pharmacological agents and solutions). Cell death was detected by in situ terminal deoxynucleotidyl transferase (TdT)-mediated deoxyuridine triphosphate (dUTP) nick end-labeling (TUNEL), using a commercial In Situ Cell Death Detection Kit (Roche, Vilvoorde, Belgium). COCs were incubated with the TUNEL reaction mixture containing TdT and fluorescein-dUTP for 1 hour at 37° C.; thereafter, they were rinsed three times in PBS and mounted with an antifade solution containing 4′,6-diamidino-2-phenylindole (DAPI) (Vectashield, Lab Consult) for nuclear staining. Slides were examined by epifluorescence microscopy using a Nikon TE300 inverted microscope with a ×10 objective and equipped with a Nikon DS-Ri1 cooled color CCD camera (Nikon Belux, Brussels, Belgium).
[…] This was performed with or without Gap27 peptide (200 μM) present in the transportation phase medium. Afterward, cell death was evaluated via TUNEL assays as described before.
Testing was performed as to whether Gap27 could improve COC viability upon inclusion in the media during a simulated transportation phase (5 hours total duration, see Materials and Methods) applied after the vitrification/thawing procedure. In these experiments, vitrification/thawing were done under control conditions and Gap27 was only present in the transportation medium.

[8] = test system: bovine cumulus-oocyte complexes (COCs); assay: TUNEL cell death assay on COCs after vitrification/thawing
Experimental: Bovine cumulus-oocyte complexes (COCs) were aspirated from ovaries collected at a local slaughterhouse. Immature COCs were recovered from the follicular fluid, washed two times in HEPES-TALP (see below under the heading “Pharmacological agents and solutions” of Materials and Methods), and matured for 22 hours in groups of 60 in 500 mL of modified bicarbonate-buffered TCM199 (Gibco BRL, Life Technologies) supplemented with 20% heat-inactivated fetal calf serum (FCS; Sigma-Aldrich) at 38.5° C. in a humidified 5% CO2 incubator. Vitrification was performed in two steps: an equilibration (EQ) and a vitrification step (VS). Equilibration solution was composed of M199/Hanks/HEPES supplemented with 20% fetal calf serum (FCS)+7.5% ethylene glycol+7.5% DMSO. The vitrification solution contained: M199/Hanks/HEPES supplemented with 20% FCS+15% ethylene glycol, 15% DMSO and 0.5 M sucrose. The COCs were washed by transferring them sequentially in three drops of 100 μl EQ solution (3 minutes residence in the first two drops and 6 minutes in the last drop) and then placed stepwise in five 100 μl drops VS solution (5 seconds in each drop except for the fifth that lasted 10 seconds). The connexin channel inhibitor Gap27 was added to the fifth drop of VS solution at a final concentration of 200 μM (the Gap27 sequence is given below under the heading “Pharmacological agents and solutions” of Materials and Methods). The control condition consisted of a drop solution without any added Gap27. COCs were placed in a manufactured cryotop and transferred immediately to liquid nitrogen (−196° C.).
After 24 hours' storage in liquid nitrogen, the COCs were thawed by transferring them to a warming solution at 37° C. composed of M199/Hanks/HEPES+20% FCS+1.25 M sucrose for 1 minute. This was followed by a three-step wash-out of the hyperosmolar sucrose (reduced from 1.25 M to 0.62, 0.31 and 0 M, respectively; duration of each wash was 3 minutes, 5 minutes and 5 minutes, respectively). In the Gap27 treatment condition, the peptide concentration was gradually diluted over these three washing steps, halving its concentration with each transfer step (reduced from 200 μM in cryopreservation solution to 100, 50 and 0 μM, respectively). In the text that follows, “thawing” denotes the combination of warming and wash out of the hyperosmolarity.
COCs were fixed in neutral buffered 4% formalin solution after thawing. Fixed COCs were permeabilized with 0.1% TRITON® X-100 at room temperature (8-minute incubation). […] Cell death was detected by in situ terminal deoxynucleotidyl transferase (TdT)-mediated deoxyuridine triphosphate (dUTP) nick end-labeling (TUNEL), using a commercial In Situ Cell Death Detection Kit (Roche, Vilvoorde, Belgium). […]

[9] = test system: bovine oocytes; assay: Cleavage rate of vitrified/thawed COCs; details: Gap27-treated vitrified/thawed COCs; after 48 hours in culture
Experimental: All procedures used were in accordance with the guidance principals for care and use of laboratory animals of the Laboratory Animal Ethical Commission of Ghent University. Bovine cumulus-oocyte complexes (COCs) were aspirated from ovaries collected at a local slaughterhouse. Immature COCs were recovered from the follicular fluid, washed two times in HEPES-TALP (see below under the heading “Pharmacological agents and solutions” of Materials and Methods), and matured for 22 hours in groups of 60 in […] of modified bicarbonate-buffered TCM199 (Gibco BRL, Life Technologies) supplemented with 20% heat-inactivated fetal calf serum (FCS; Sigma-Aldrich) at 38.5° C. in a humidified 5% CO2 incubator. Vitrification was performed in two steps: an equilibration (EQ) and a vitrification step (VS). Equilibration solution was composed of M199/Hanks/HEPES supplemented with 20% fetal calf serum (FCS)+7.5% ethylene glycol+7.5% DMSO. The vitrification solution contained: M199/Hanks/HEPES supplemented with 20% FCS+15% ethylene glycol, 15% DMSO and 0.5 M sucrose. […]
To determine the cleavage rate, zygotes were washed and placed in groups of 30 in […] droplets of synthetic oviduct fluid (composition see below under “Pharmacological agents and solutions”) supplemented with 5% FCS and cultured at 38.5° C. in 5% CO2, 5% O2, and 90% N2; cleavage rate was determined after 48 hours in culture.

[10] = simulated transportation at 0° C., intact COCs
[11] = simulated transportation at 37° C., cumulus reduced to 1-5 cell layers
[12] = simulated transportation at 37° C., intact cumulus cloud
[13] = cumulus cells, Gap27 during vitrification/thawing

CN[C@@H]1C[C@H]2O[C@@](C)([C@@H]1OC)n1c3ccccc3c3c4c(c5c6ccccc6n2c5c31)C(=O)NC4 [staurosporine, Staurosporine]
TUNEL positivity (in words) [1]: massive TUNEL positivity

Gap27 with a scrambled peptide sequence: scrambled Gap27 control peptide TFEPIRISITK [reference compound]
effect on number of TUNEL-positive cells (in words) ([2]; ECs and SMCs): no significant effects
effect on number of TUNEL-positive cells (in words) ([3]; ECs and SMCs): no significant effects

Gap27: connexin mimetic peptide, connexin channel inhibitor, SRPTEKTIFII (SEQ ID NO:2) (listed as Homo sapiens)
effect on cell death (in words) [4]: larger and statistically significant protective effects
fertilization rate [5]: 41.2%
effect on cell death (in words) [6]: larger and statistically significant protective effects
Protection relative to total number of cells (%) ([2]; EC): 12 ± 4 (n = 13) %
Protection relative to total number of dead cells (%) ([2]; EC): 51 ± 8 (n = 13) %
Protection relative to total number of cells (%) ([2]; SMC): 6 ± 2 (n = 13) %
Protection relative to total number of dead cells (%) ([2]; SMC): 71 ± 6 (n = 13) %
effect on cell death (in words) ([2]; saphenous vein, ECs and SMCs, Gap27 during DMSO washout only): slightly (but non-significantly) reduced
effect on number of TUNEL-positive cells (in words) ([2]; ECs and SMCs): significantly reduced
reduction of TUNEL-positive cell death counts (fraction) ([2]; ECs): ½
reduction of TUNEL-positive cell death counts (fraction) ([2]; SMCs): more than ½
cell death of cumulus cells ([7]; simulated transportation 5 hours at 37° C., intact cumulus cloud, Gap27 200 μM in transportation medium): 13.8%
cell death of cumulus cells [7, 10]: 2.82%
reduction of the dead cell mass [7, 10]: ~53%
rescue effect of the total cell mass [7, 10]: ~3.1%
cell death of cumulus cells ([7]; simulated transportation at 37° C., cumulus cell layer reduced to 1-5 cell layers): 7.54%
reduction of the dead cell mass [7, 11]: ~54%
rescue effect of the total cell mass [7, 11]: ~8.7%
reduction of the mass of dead cells [7, 12]: ~32%
rescue effect relative to the total mass of cells [7, 12]: ~6.5%
Protection relative to total number of cells (%) ([3]; EC): 11 ± 4 (n = 11) %
Protection relative to total number of dead cells (%) ([3]; EC): 32 ± 8 (n = 11) %
Protection relative to total number of cells (%) ([3]; SMC): 6 ± 3 (n = 11) %
Protection relative to total number of dead cells (%) ([3]; SMC): 73 ± 7 (n = 11) %
effect on number of TUNEL-positive cells (in words) ([3]; ECs and SMCs): visibly reduced; also recorded: significantly reduced
reduction of TUNEL-positive cell death counts (fraction) ([3]; intimal layer (ECs)): more than ⅓
reduction of TUNEL-positive cell death counts (fraction) ([3]; medial layer (SMCs)): more than ⅔
effect on cell death (in words) ([3]; femoral artery, ECs and SMCs, Gap27 during DMSO washout only): slightly (but non-significantly) reduced
cell death (TUNEL assay) of cumulus cells ([8]; Gap27 200 μM during vitrification/thawing): 1.68%
cell death of the oocytes (in words) ([8]; after vitrification/thawing, whatever the treatment): No cell death of the oocytes
cell mass rescued (effect size relative to the total number of cells) [8, 13]: ~2.4%
reduction relative to the total number of dead cells in control [8, 13]: ~59%
cleavage rate [9]: 28%
